US11819500B2, “T-cell regulation in t-cell mediated diseases by reducing pathogenic function of TH17 in a human subject through treatment with a nitroxide” (priority 2016, dated 2023)

Tests used:
Cd5l [1] = experiment: Serum level of Cd5l after Tempol treatment of a human subject; format: in vivo; conditions: 1500 mg per day for 180 days
Experimental: A human subject is administered a dose of 1500 mg of Tempol (or a nitroxide antioxidant) per day for 180 days. The human subject may be a 70-kilogram human subject. The human subject may be at risk of having pathogenic T-helper cell activity, may have symptoms of pathogenic T-helper cell activity, and/or may have a disease (e.g., an autoimmune disease) associated with pathogenic T-helper cell activity (e.g., pathogenic T-helper 17 cell activity). The autoimmune disease may be mediated by IL-23 as an effector molecule. The human subject can be identified. The dose may be administered in a single dose, or may be administered as a number of smaller doses over a 24-hour period: for example, three 500-mg doses at eight-hour intervals. Following treatment, the serum level of Cd5l is increased. Increased Cd5l expression can alter lipid biosynthesis within the T-helper cell, thus suppressing the pathogenic T-helper cell activity and/or reversing the effect of the pathogenic T-helper cell activity.
A human subject is administered a dose of 1500 mg of Tempol (or a nitroxide antioxidant) per day for 180 days. The human subject may be a 70-kilogram human subject. The human subject may be at risk of developing an autoimmune disease, may have symptoms of an autoimmune disease, and/or may have an autoimmune disease. The autoimmune disease may be mediated by IL-23 as an effector molecule. […]

Perp [2] = experiment: Level of Perp after Tempol treatment of a human subject; format: in vivo; conditions: 70-kilogram human subject with a disorder such as a desmosome-associated disorder; 1500 mg per day for 180 days
Experimental: A human subject is administered a dose of 1500 mg of Tempol (or a nitroxide antioxidant) per day for 180 days. The human subject is a 70-kilogram human subject. The human subject may have a disorder (such as a desmosome-associated disorder, which can be associated or characterized by damaged epithelial tissue). The human subject can be identified. The dose may be administered in a single dose, or may be administered as a number of smaller doses over a 24-hour period: for example, three 500-mg doses at eight-hour intervals. Following treatment, the level (e.g., the serum level) of Perp is increased, which can in turn increase desmosome function (e.g., characterized by epithelial integrity)

[3] = test system: Cd5l, Perp, Unc5b, Bag5 or Bri3; conditions: human, in vivo
Unc5b = experiment: Gene expression in cardiac tissue after Tempol administration (chip-based microarray); format: in vivo; conditions: mice aged 31 months, Tempol 5 mg/g of food from 14 to 31 months, control mice 103
Experimental: (§1) To assess the effects of Tempol on gene expression, Tempol was administered to experimental mice at a dose of 5 mg/g of food from 14 months to 31 months after birth. Mice receiving the same food without the addition of Tempol were used as a negative control. At the age of 31 months, the experimental animals were sacrificed and the hearts were surgically removed. The expression of a broad spectrum of genes in the cardiac tissue was assessed using chip-based microarray technology. Such chips are well known in the art and are widely used to assess gene expression.

Cd5l [4] = experiment: as above; format: in vivo; conditions: mice aged 31 months, Tempol 5 mg/g of food from 14 to 31 months, control mice 150
Experimental: as §1

Perp [5] = experiment: as above; format: in vivo; conditions: mice aged 31 months, Tempol 5 mg/g of food from 14 to 31 months, control mice 49
Experimental: as §1

Bri3 [6] = experiment: as above; format: in vivo; conditions: mice aged 31 months, Tempol 5 mg/g of food from 14 to 31 months, control mice 1549
Experimental: as §1

Bag5 = experiment: as above; format: in vivo; conditions: mice aged 31 months, Tempol 5 mg/g of food from 14 to 31 months, control mice 300
Experimental: as §1

Bri3 [7] = experiment: Serum level of Bri3 after Tempol treatment of a human subject; format: in vivo; conditions: human subject with or at risk of a neurodegenerative disease (e.g., Alzheimer's Disease); 1500 mg per day for 180 days
Experimental: A human subject is administered a dose of 1500 mg of Tempol (or a nitroxide antioxidant) per day for 180 days. The human subject may be a 70-kilogram human subject over the age of 65. The human subject may be at risk of developing a neurodegenerative disease (e.g., Alzheimer's Disease), may have symptoms of a neurodegenerative disease, and/or may have a neurodegenerative disease. The risk, the symptoms, or the neurodegenerative disease may be caused by decreased expression level of Bri3. The human subject can be identified. The dose may be administered in a single dose, or may be administered as a number of smaller doses over a 24-hour period: for example, three 500-mg doses at eight-hour intervals. Following treatment, the serum level of Bri3 is increased. Increased Bri3 expression can inhibit amyloid precursor protein (APP) processing and amyloid plaque deposition, thus suppressing or reversing development of the neurodegenerative disease.

## CC1(C)CC(O)CC(C)(C)N1[O] [Tempol, 4-hydroxy-2,2,6,6-tetramethylpiperidine-1-oxyl]
Cd5l [1]; human subject with or at risk of developing an autoimmune disease
  serum level of Cd5l: increased
Cd5l [1]; human subject with or at risk of pathogenic T-helper cell activity
  serum level of Cd5l: increased
Perp [2]
  level (e.g., the serum level) of Perp: increased
[3]
  serum level of Cd5l, Perp, Unc5b, Bag5 or Bri3: increased
Unc5b
  Unc5b expression, Tempol-treated mice: 172
Cd5l [4]
  Cd5l expression, Tempol-treated mice: 406
Perp [5]
  Perp expression, Tempol-treated mice: 82
Bri3 [6]
  Bri3 expression, Tempol-treated mice: 1835
Bag5
  Bag5 expression, Tempol-treated mice: 370
Bri3 [7]
  serum level of Bri3: increased
